Measured values reported in ChEMBL document CHEMBL3792317, “Novel tetrazoloquinoline-rhodanine conjugates: Highly efficient synthesis and biological evaluation” (Bioorg Med Chem Lett, 2016).
In brackets after ≈: the same amount, converted by molar mass.

Legend:
[1] = system: Candida albicans; test: Antifungal activity against Candida albicans NCIM 3471 after 48 hrs by agar cup plate method; assay type: functional; conditions: NCIM 3471, 48 h
[2] = system: Mycobacterium tuberculosis; test: Antitubercular activity against Mycobacterium tuberculosis H37Ra ATCC 25177 at 10 ug/ml incubated for 40 mins by XTT Reduction Menadione Assay; assay type: functional; conditions: H37Ra ATCC 25177, 40 min, read-out: GI
[3] = system: Mycobacterium bovis BCG str. ATCC 35743; test: Antitubercular activity against dormant Mycobacterium bovis BCG ATCC 35743 at 30 ug/ml incubated for 40 mins by XTT Reduction Menadione Assay; assay type: functional
[4] = system: Mycobacterium bovis BCG str. ATCC 35743; test: Antitubercular activity against dormant Mycobacterium bovis BCG ATCC 35743 at 3 ug/ml incubated for 40 mins by XTT Reduction Menadione Assay; assay type: functional
[5] = system: Cryptococcus neoformans; test: Antifungal activity against Cryptococcus neoformans NCIM 576 after 48 hrs by agar cup plate method; assay type: functional; conditions: NCIM 576, 48 h
[6] = system: Staphylococcus aureus; test: Antibacterial activity against Staphylococcus aureus after 18 hrs by broth dilution method; assay type: functional
[7] = system: Fusarium oxysporum; test: Antifungal activity against Fusarium oxysporum NCIM 1332 after 48 hrs by agar cup plate method; assay type: functional; conditions: NCIM 1332, 48 h
[8] = system: Escherichia coli; test: Antibacterial activity against Escherichia coli after 18 hrs by broth dilution method; assay type: functional
[9] = system: Aspergillus flavus; test: Antifungal activity against Aspergillus flavus NCIM 539 after 48 hrs by agar cup plate method; assay type: functional; conditions: NCIM 539, 48 h
[10] = system: Pseudomonas fluorescens; test: Antibacterial activity against Pseudomonas fluorescens after 18 hrs by broth dilution method; assay type: functional
[11] = system: Aspergillus niger; test: Antifungal activity against Aspergillus niger NCIM 1196 after 48 hrs by agar cup plate method; assay type: functional; conditions: NCIM 1196, 48 h
[12] = Antitubercular activity against Mycobacterium bovis BCG ATCC 35743 incubated for 40 mins by XTT Reduction Menadione Assay; assay type: functional, Mycobacterium bovis BCG str. ATCC 35743; conditions: Mycobacterium tuberculosis variant bovis BCG, ATCC 35743, 40 min
[13] = system: Bacillus subtilis; test: Antibacterial activity against Bacillus subtilis after 18 hrs by broth dilution method; assay type: functional
[14] = system: Mycobacterium tuberculosis; test: Antitubercular activity against Mycobacterium tuberculosis H37Ra ATCC 25177 incubated for 40 mins by XTT Reduction Menadione Assay; assay type: functional; conditions: H37Ra ATCC 25177, 40 min
[15] = system: Mycobacterium tuberculosis; test: Antitubercular activity against Mycobacterium tuberculosis H37Ra ATCC 25177 at 3 ug/ml incubated for 40 mins by XTT Reduction Menadione Assay; assay type: functional; conditions: H37Ra ATCC 25177, 40 min, read-out: GI
[16] = system: Mycobacterium bovis BCG str. ATCC 35743; test: Antitubercular activity against dormant Mycobacterium bovis BCG ATCC 35743 at 10 ug/ml incubated for 40 mins by XTT Reduction Menadione Assay; assay type: functional
[17] = system: Mycobacterium tuberculosis; test: Antitubercular activity against Mycobacterium tuberculosis H37Ra ATCC 25177 at 30 ug/ml incubated for 40 mins by XTT Reduction Menadione Assay; assay type: functional; conditions: H37Ra ATCC 25177, 40 min, read-out: GI
[18] = Cytotoxicity against human THP1 cells after 48 hrs by MTT assay; assay type: cell-based, THP-1; conditions: for GI50 at 48 h: THP1 cells; for GI90: thp-1, 48 h
[19] = Cytotoxicity against human PANC1 cells after 48 hrs by MTT assay; assay type: cell-based, PANC-1; conditions: for GI50 at 48 h: PANC1 cells; for GI90: panc-1, 48 h
[20] = (§1) Cytotoxicity against human A549 cells after 48 hrs by MTT assay; assay type: cell-based; conditions: A549 cells
[21] = system: A549; test: as §1; assay type: cell-based; conditions: a549, 48 h
[22] = (§2) Cytotoxicity against human HeLa cells after 48 hrs by MTT assay; assay type: cell-based; conditions: HeLa cells
[23] = system: HeLa; test: as §2; assay type: cell-based; conditions: hela, 48 h
[24] = system: Mycobacterium tuberculosis; test: Antitubercular activity against dormant Mycobacterium tuberculosis H37Ra ATCC 25177 incubated for 40 mins by XTT Reduction Menadione Assay; assay type: functional; conditions: H37Ra ATCC 25177, 40 min
[25] = system: Mycobacterium tuberculosis; test: Antitubercular activity against active Mycobacterium tuberculosis H37Ra ATCC 25177 incubated for 40 mins by XTT Reduction Menadione Assay; assay type: functional; conditions: H37Ra ATCC 25177, 40 min

Compound: O=C(O)CN1C(=O)/C(=C/c2cc3ccccc3n3nnnc23)SC1=S
- MIC [1]: 50 µg/mL (≈ 135 µM)
- inhibition of growth at 10 µg/mL [2]: -2.04%
- growth inhibition (GI) [3]: -12.2%
- growth inhibition (GI) [4]: -52.6%
- MIC [5]: 150 µg/mL (≈ 404 µM)
- MIC [6]: 151 µg/mL (≈ 408 µM)
- MIC [7]: 50 µg/mL (≈ 135 µM)
- MIC [8]: 178 µg/mL (≈ 480 µM)
- MIC [9]: 125 µg/mL (≈ 337 µM)
- MIC [10]: 182 µg/mL (≈ 489 µM)
- MIC [11]: 125 µg/mL (≈ 337 µM)
- MIC [12]: > 250 µg/mL
- MIC [13]: 124 µg/mL (≈ 333 µM)
- MIC [14]: > 250 µg/mL
- inhibition of growth at 3 µg/mL [15]: 12.2%
- growth inhibition (GI) [16]: -28.9%
- inhibition of growth at 30 µg/mL [17]: 1.49%

Compound: Clc1ccc(COC(Cn2ccnc2)c2ccc(Cl)cc2Cl)c(Cl)c1 (configuration not stated) [MICONAZOLE]
- MIC [1]: 25 µg/mL (≈ 60.1 µM)
- MIC [5]: 25 µg/mL (≈ 60.1 µM)
- MIC [7]: 25 µg/mL (≈ 60.1 µM)
- MIC [9]: 12.5 µg/mL (≈ 30 µM)
- MIC [11]: 25 µg/mL (≈ 60.1 µM)

Compound: COc1ccc2cc(/C=C3\SC(=S)N(CCC(=O)O)C3=O)c3nnnn3c2c1
- MIC [1]: 100 µg/mL (≈ 241 µM)
- inhibition of growth at 10 µg/mL [2]: 21.7%
- growth inhibition (GI) [3]: 19%
- growth inhibition (GI) [4]: 18.8%
- MIC [5]: 150 µg/mL (≈ 361 µM)
- MIC [7]: 150 µg/mL (≈ 361 µM)
- MIC [9]: 125 µg/mL (≈ 301 µM)
- MIC [11]: 50 µg/mL (≈ 120 µM)
- MIC [12]: > 250 µg/mL
- MIC [14]: > 250 µg/mL
- inhibition of growth at 3 µg/mL [15]: 0.02%
- growth inhibition (GI) [16]: 20.5%
- inhibition of growth at 30 µg/mL [17]: 12.5%

Compound: NC[C@H]1O[C@H](O[C@H]2[C@H](O)[C@@H](O[C@H]3O[C@H](CO)[C@@H](O)[C@H](N)[C@H]3O)[C@H](N)C[C@@H]2N)[C@H](O)[C@@H](O)[C@@H]1O [KANAMYCIN]
- MIC [6]: > 30 µg/mL
- MIC [8]: 1.62 µg/mL (≈ 3.34 µM)
- MIC [10]: 0.49 µg/mL (≈ 1.01 µM)
- MIC [13]: 1.35 µg/mL (≈ 2.79 µM)

Compound: CC(=O)O[C@H]1C(=O)[C@@]2(C)[C@H]([C@H](OC(=O)c3ccccc3)[C@]3(O)C[C@H](OC(=O)[C@H](O)[C@@H](NC(=O)c4ccccc4)c4ccccc4)C(C)=C1C3(C)C)[C@]1(OC(C)=O)CO[C@@H]1C[C@@H]2O [PACLITAXEL]
- GI50 at 48 h [18]: 0.137 µg/mL (≈ 0.161 µM)
- GI90 [18]: 5.814 µg/mL (≈ 6.81 µM)
- GI50 at 48 h [19]: 0.128 µg/mL (≈ 0.15 µM)
- GI90 [19]: 5.715 µg/mL (≈ 6.69 µM)
- GI50 at 48 h [20]: < 0.004 µg/mL
- GI90 [21]: 0.038 µg/mL (≈ 0.0445 µM)
- GI50 at 48 h [22]: 0.0048 µg/mL (≈ 0.00562 µM)
- GI90 [23]: 0.075 µg/mL (≈ 0.0878 µM)

Compound: O=C1NC(=S)S/C1=C\c1cc2ccccc2n2nnnc12
- MIC [1]: 150 µg/mL (≈ 479 µM)
- inhibition of growth at 10 µg/mL [2]: 71%
- IC90 [24]: 162 µg/mL (≈ 515 µM)
- growth inhibition (GI) [3]: -15.7%
- growth inhibition (GI) [4]: -8.27%
- MIC [5]: 75 µg/mL (≈ 239 µM)
- MIC [6]: 153 µg/mL (≈ 487 µM)
- GI50 at 48 h [18]: > 100 µg/mL
- GI90 [18]: > 100 µg/mL
- GI50 at 48 h [19]: > 100 µg/mL
- GI90 [19]: > 100 µg/mL
- MIC [7]: 150 µg/mL (≈ 479 µM)
- MIC [8]: 212 µg/mL (≈ 677 µM)
- MIC [9]: 125 µg/mL (≈ 399 µM)
- IC90 [25]: > 250 µg/mL
- MIC [10]: 186 µg/mL (≈ 593 µM)
- GI50 at 48 h [20]: 79.2 µg/mL (≈ 253 µM)
- GI90 [21]: > 100 µg/mL
- MIC [11]: 100 µg/mL (≈ 319 µM)
- MIC [12]: 168 µg/mL (≈ 536 µM)
- GI50 at 48 h [22]: > 100 µg/mL
- GI90 [23]: > 100 µg/mL
- MIC [13]: 204 µg/mL (≈ 652 µM)
- MIC [14]: 162 µg/mL (≈ 515 µM)
- inhibition of growth at 3 µg/mL [15]: 34%
- growth inhibition (GI) [16]: -5.07%
- inhibition of growth at 30 µg/mL [17]: 51.8%

Compound: Cc1ccc2c(c1)cc(/C=C1\SC(=S)N(CC(=O)O)C1=O)c1nnnn12
- MIC [1]: 25 µg/mL (≈ 64.9 µM)
- inhibition of growth at 10 µg/mL [2]: 16.3%
- IC90 [24]: 88.1 µg/mL (≈ 229 µM)
- growth inhibition (GI) [3]: -14.8%
- growth inhibition (GI) [4]: 20.2%
- MIC [5]: 100 µg/mL (≈ 259 µM)
- GI50 at 48 h [18]: > 100 µg/mL
- GI90 [18]: > 100 µg/mL
- GI50 at 48 h [19]: > 100 µg/mL
- GI90 [19]: > 100 µg/mL
- MIC [7]: 100 µg/mL (≈ 259 µM)
- MIC [9]: 50 µg/mL (≈ 130 µM)
- IC90 [25]: 49.2 µg/mL (≈ 128 µM)
- GI50 at 48 h [20]: > 100 µg/mL
- GI90 [21]: > 100 µg/mL
- MIC [11]: 150 µg/mL (≈ 389 µM)
- MIC [12]: 84.4 µg/mL (≈ 219 µM)
- GI50 at 48 h [22]: > 100 µg/mL
- GI90 [23]: > 100 µg/mL
- MIC [14]: 88.1 µg/mL (≈ 229 µM)
- inhibition of growth at 3 µg/mL [15]: 17.5%
- growth inhibition (GI) [16]: 35.3%
- inhibition of growth at 30 µg/mL [17]: 36.7%
